According to patent US7067486B2, “Acetylcholinesterase-derived peptides and uses thereof” (priority 1999, dated 2006):
Marks after values point to notes of the source that are not given here. Where no end group is shown, it is not given here.

What was measured:
FVB/N adult mice = assay: Biochemical and physiological male fertility correlates after ARP injection; type: in vivo, mouse
Excerpt: Culture Analyses: Twenty-four hr liquid cultures served for cytochemical staining, in situ hybridization, and cell proliferation assay by 5-bromo-2′-deoxy-Uridine (BrdU) incorporation [Grisaru et al. (1999b) id ibid.]. Twenty-eight day liquid cultures were sampled every 6–8 days for viable cell counting (using trypan blue dye exclusion), cell phenotyping (CD34^+, CD33^+ and CD41^+ quantification using flow cytometry, with CD34-PE, CD33-FITC (Immunotech/Coulter, Hialeah, Fla.), CD41-FITC (Immunoquality Products, Groningen, Netherlands) and CD45-FITC monoclonal antibodies), and growth of progenitor colony (granulocyte-macrophage and megakaryocytic), using previously described techniques (Pick et al. (1998) id ibid.). Cytochemical Staining: Staining of AChE activity was essentially as detailed elsewhere [Grisaru et al. (1999b) id ibid], on non-fixed liquid cultures following 300×g centrifugation on collagen-coated cover slips placed on the bottom of the culture well, in the presence of 10^−5 M iso-OMPA (ISO) or BW284C51 (BW), selective inhibitors of BuChE and AChE, respectively [see also Keymer et al.(1999) Eur. J. Neurosci. 11, 1049–57]. Nuclear staining w with 4′,6-diamidino-2- phenylindole [DAPI, see e.g., Peterson et al. (1999) Genetics 152, 427–439]. Animals and Tissue Collection: Male FVB/N mice (2–6 months old) were sacrificed 24 hr following 4 successive days of a forced swim session as detailed [Kaufer et al. (1998) id ibid.], or a single injection of ARP (34 nmol/kg weight), or phosphate buffer (PB) for control. ARP, a 26 amino acid residue peptide synthesized according to the C-terminal sequence of human AChE-R [Grisaru et al. (1999b) id ibid.] was HPLC purified and mass-spectrometry analysed for purity. Control naïve mice and hAChE-R transgenics were sacrificed with no prior treatment. Blood samples were allowed to clot 1 hr at room temperature and overnight at 4° C., followed by centrifugation and serum collection. Testes and seminal vesicles were excised and weighed, fixed in 4% paraformaldehyde or Bouin's fixative for histological staining or kept at −70° C. for protein extraction. Sperm cells were collected from one cauda epididymis shredded in 1 ml saline. Evaluation of Serum Corticosterone Levels: concentrations were determined by radioimmunoassay.
Epididymal sperm motility was assessed by visually determining percent motile sperm. Sperm concentration was measured using the Makler chamber (company, city, state).
Detection of the AChE core protein and/or its variant C-terminal peptides was performed on 7 μm thick paraffin embedded testis sections with either anti-ASP (C-16; Santa Cruz Biotechnology, Santa Cruz, Calif.) or anti-ARP polyclonal antibodies [Sternfeld et al. (2000) id ibid.]. PCNA was detected using a dedicated staining kit (Zymed Laboratories, San-Francisco, Calif.); nuclear staining and counterstaining was with DAPI and hematoxylin, respectively (Sigma, St. Louis Mo.).
To determine the in vivo capacity of ARP to affect different biochemical and physiological male fertility properties, the effect of injection of ARP or chronic expression of AChE-R (AChE-R transgenic mice) on different parameters was examined.

CD34^+ cells [1] = assay: Viable cell expansion in CD34+ liquid cultures (trypan blue exclusion); type: cell-based, human; conditions: day 14; seeded at 50,000 cells/well; ARP 2 nM, cortisol 1.2 μM, ASP 2 nM, SCF 50 ng/ml, AS1 20 pM, PBAN 2 nM
Excerpt: Cell Source: UCB was collected, following informed consent of the parents and with the approval of the Sourasky Medical Center Ethics Committee, as previously described [Grisaru et al. (1999a) Am. J. Obstet. Gynecol, 180, 1240–1243]. Following 1:1 (v/v) dilution in Iscove's modified Dulbecco medium (IMDM, Beit Haemek, Israel), mononuclear cells were separated using 3% gelatin (Difco, Detroit, Mich.) and Ficoll-Hypaque gradients (<1.077 g/ml; Pharmacia, Uppsala, Sweden) [Pick et al. (1998) Br. J. Haematol. 103, 639–50]. CD34^+ cells were enriched using CD34 immunoglobulin-coated magnetic beads (CD34 progenitor cell selection system, Dynal, Norway).CD34^+ cells analysis was performed by flow cytometry (Becton Dickinson Immunocytochemistry System Inc., San Jose, Calif.), using CD34-PE (Becton Dickinson Immunocytometry System, Inc.) and CD45-FITC (Dako, Glostrup, Denmark) monoclonal antibodies. […] Liquid Cultures: UCB CD34^+ cells were set for liquid cultures at a concentration of 10^5/mL in IMDM, containing 10% autologous plasma, 2 mM L-glutamine (Sigma Chemical Co., St Louis, Mo.), penicillin ([…]), streptomycin ([…]), amphotericin B (2×10^−5 M) (Sigma Chemical Co.), and heparin (20 IU/mL, Gibco, Grand Island, N.Y.), all in a fully humidified atmosphere at 37° C. and 5% CO2. The following elements were added where noted: • 1. Hematopoietic growth factors: Interleukin 3 (IL3, 5 ng/mL, Immunex, Seattle, Wash.), interleukin 6 (IL6, 50 ng/mL, R&D Systems, Minneapolis, Minn.), TPO (1 ng/mL, R&D Systems), stem cell factor (SCF, 10 ng/mL, R&D Systems), FLT-3 ligand (FLT3, 50 ng/mL, R&D Systems), granulocyte-macrophage colony stimulating factor (GM-CSF, 50 ng/mL, Biogenesis Ltd, Bournemouth, UK) and combinations of the above, for 24 hr to 28 days (supplemented every 4 days). • 2. Endothlial Growth factors: Epidermal growth factor (EGF 10 ng/ml, Sigma Chemical Co.), basic Fibroblast growth factor (bFGF 20 ng/ml, Sigma Chemical Co.) incubated in a serum free medium (SFM) for 48 hr. • 3. […] AChE C-terminal peptides: The following C-terminal peptides of the AChE synaptic (ASP, also denoted SEQ ID: No. 2) and readthrough (ARP, also denoted SEQ ID: No. 1) isoforms were synthesized using a 433A peptide synthesizer (PE Applied Biosystems, Inc., Norwalk, Conn.). • ASP: 1-[…]-40, also denoted as SEQ ID: No. 2. • ARP: 1-[…]-26, also denoted as SEQ ID: No. 1. […]

CD34^+ cells [2] = assay: Cell phenotyping of CD34+ liquid cultures by flow cytometry (CD34, CD33, CD15, CD41); type: cell-based, human; conditions: for MK (CD41^+) fold expansion / Myeloid (CD33^+) fold expansion: 2-week primary cultures of CD34+ cells from 1 to 3 individuals, ± SEM where noted
Excerpt: Cell Source: UCB was collected, following informed consent of the parents and with the approval of the Sourasky Medical Center Ethics Committee, as previously described [Grisaru et al. (1999a) Am. J. Obstet. Gynecol, 180, 1240–1243]. Following 1:1 (v/v) dilution in Iscove's modified Dulbecco medium (IMDM, Beit Haemek, Israel), mononuclear cells were separated using 3% gelatin (Difco, Detroit, Mich.) and Ficoll-Hypaque gradients (<1.077 g/ml; Pharmacia, Uppsala, Sweden) [Pick et al. (1998) Br. J. Haematol. 103, 639–50]. CD34^+ cells were enriched using CD34 immunoglobulin-coated magnetic beads (CD34 progenitor cell selection system, Dynal, Norway).CD34^+ cells analysis was performed by flow cytometry (Becton Dickinson Immunocytochemistry System Inc., San Jose, Calif.), using CD34-PE (Becton Dickinson Immunocytometry System, Inc.) and CD45-FITC (Dako, Glostrup, Denmark) monoclonal antibodies. […] Liquid Cultures: UCB CD34^+ cells were set for liquid cultures at a concentration of 10^5/mL in IMDM, containing 10% autologous plasma, 2 mM L-glutamine (Sigma Chemical Co., St Louis, Mo.), penicillin ([…]), streptomycin ([…]), amphotericin B (2×10^−5 M) (Sigma Chemical Co.), and heparin (20 IU/mL, Gibco, Grand Island, N.Y.), all in a fully humidified atmosphere at 37° C. and 5% CO2. The following elements were added where noted: • 1. […] Endothlial Growth factors: Epidermal growth factor (EGF 10 ng/ml, Sigma Chemical Co.), basic Fibroblast growth factor (bFGF 20 ng/ml, Sigma Chemical Co.) incubated in a serum free medium (SFM) for 48 hr. • 3. Stress mimicking conditions: Hydrocortisone sodium succinate (Abic Ltd., Netanya, Israel) at concentrations equivalent to normal, intermediate and stress serum cortisol levels (0.1, 0.6 and 1.2 μM, respectively (De Vroede et al., Arch. Des. […] Antisense oligonucleotides: 3′-terminal 2′-O-Methylated 15- and 20-mer oligodeoxynucleotides in the antisense (AS) orientation, targeted against the common sequence domain in human AChEmRNA and BuChE mRNA, as control, […], as detailed elsewhere [Grisaru et al. (1999b) Mol. Cell. Biol. 19, 788–95]. • 5. AChE C-terminal peptides: The following C-terminal peptides of the AChE synaptic (ASP, also denoted SEQ ID: No. 2) and readthrough (ARP, also denoted SEQ ID: No. 1) isoforms were synthesized using a 433A peptide synthesizer (PE Applied Biosystems, Inc., Norwalk, Conn.). • ASP: 1-[…]-40, also denoted as SEQ ID: No. 2. • ARP: 1-[…]-26, also denoted as SEQ ID: No. 1.
Culture Analyses: Twenty-four hr liquid cultures served for cytochemical staining, in situ hybridization, and cell proliferation assay by 5-bromo-2′-deoxy-Uridine (BrdU) incorporation [Grisaru et al. (1999b) id ibid.]. Twenty-eight day liquid cultures were sampled every 6–8 days for viable cell counting (using trypan blue dye exclusion), cell phenotyping (CD34^+, CD33^+ and CD41^+ quantification using flow cytometry, with CD34-PE, CD33-FITC (Immunotech/Coulter, Hialeah, Fla.), CD41-FITC (Immunoquality Products, Groningen, Netherlands) and CD45-FITC monoclonal antibodies), and growth of progenitor colony (granulocyte-macrophage and megakaryocytic), using previously described techniques (Pick et al. (1998) id ibid.). […] 11, 1049–57]. Nuclear staining w with 4′,6-diamidino-2- phenylindole [DAPI, see e.g., Peterson et al. (1999) Genetics 152, 427–439].

CD34^+ cells [3] = assay: BrdU incorporation into CD34+ cells (cell proliferation); type: cell-based, human; conditions: GM-CSF alone, 16 hr
Excerpt: Cell Source: UCB was collected, following informed consent of the parents and with the approval of the Sourasky Medical Center Ethics Committee, as previously described [Grisaru et al. (1999a) Am. J. Obstet. Gynecol, 180, 1240–1243]. Following 1:1 (v/v) dilution in Iscove's modified Dulbecco medium (IMDM, Beit Haemek, Israel), mononuclear cells were separated using 3% gelatin (Difco, Detroit, Mich.) and Ficoll-Hypaque gradients (<1.077 g/ml; Pharmacia, Uppsala, Sweden) [Pick et al. (1998) Br. J. Haematol. 103, 639–50]. CD34^+ cells were enriched using CD34 immunoglobulin-coated magnetic beads (CD34 progenitor cell selection system, Dynal, Norway).CD34^+ cells analysis was performed by flow cytometry (Becton Dickinson Immunocytochemistry System Inc., San Jose, Calif.), using CD34-PE (Becton Dickinson Immunocytometry System, Inc.) and CD45-FITC (Dako, Glostrup, Denmark) monoclonal antibodies. […] Liquid Cultures: UCB CD34^+ cells were set for liquid cultures at a concentration of 10^5/mL in IMDM, containing 10% autologous plasma, 2 mM L-glutamine (Sigma Chemical Co., St Louis, Mo.), penicillin ([…]), streptomycin ([…]), amphotericin B (2×10^−5 M) (Sigma Chemical Co.), and heparin (20 IU/mL, Gibco, Grand Island, N.Y.), all in a fully humidified atmosphere at 37° C. and 5% CO2. The following elements were added where noted: • 1. Hematopoietic growth factors: Interleukin 3 (IL3, 5 ng/mL, Immunex, Seattle, Wash.), interleukin 6 (IL6, 50 ng/mL, R&D Systems, Minneapolis, Minn.), TPO (1 ng/mL, R&D Systems), stem cell factor (SCF, 10 ng/mL, R&D Systems), FLT-3 ligand (FLT3, 50 ng/mL, R&D Systems), granulocyte-macrophage colony stimulating factor (GM-CSF, 50 ng/mL, Biogenesis Ltd, Bournemouth, UK) and combinations of the above, for 24 hr to 28 days (supplemented every 4 days). • 2. […] AChE C-terminal peptides: The following C-terminal peptides of the AChE synaptic (ASP, also denoted SEQ ID: No. 2) and readthrough (ARP, also denoted SEQ ID: No. 1) isoforms were synthesized using a 433A peptide synthesizer (PE Applied Biosystems, Inc., Norwalk, Conn.). • ASP: 1-[…]-40, also denoted as SEQ ID: No. 2. • ARP: 1-[…]-26, also denoted as SEQ ID: No. 1.
[…] Twenty-eight day liquid cultures were sampled every 6–8 days for viable cell counting (using trypan blue dye exclusion), cell phenotyping (CD34^+, CD33^+ and CD41^+ quantification using flow cytometry, with CD34-PE, CD33-FITC (Immunotech/Coulter, Hialeah, Fla.), CD41-FITC (Immunoquality Products, Groningen, Netherlands) and CD45-FITC monoclonal antibodies), and growth of progenitor colony (granulocyte-macrophage and megakaryocytic), using previously described techniques (Pick et al. (1998) id ibid.). […]

[4] = 24-hr post i.p. injection of 34 nmol/Kg ARP, FVB/N adult male mice
[5] = day 14, seeded at 50,000 cells/well, ARP 2 nM, cortisol 1.2 μM, ASP 2 nM, SCF 50 ng/ml, AS1 20 pM, PBAN 2 nM

Substance: GMQGPAGSGWEEGSGSPPGVTPLFSP [ARP]
- seminal gland wt. (FVB/N adult mice; [4]): 10.79 ± 1.08 mg/gr weight
- sperm counts (FVB/N adult mice; [4]): 5.3 ± 1.2 cells/epididimis × 10^−6
- sperm, motile (FVB/N adult mice; [4]): 5 ± 1.7 % of total sperm cells
- sperm cell motility (FVB/N adult mice; ARP injected mice): significantly reduced motility
- sperm counts compared with untreated FVB/N mice (FVB/N adult mice; ARP-injected mice): lower

Substance: SCF
- Total viable cells (CD34^+ cells [1]): 118.0 cells per culture × 10^−3
- MK (CD41^+) fold expansion (CD34^+ cells [2]): 0.30 ± 0.21 fold
- Myeloid (CD33^+) fold expansion (CD34^+ cells [2]): 3.90 fold
- CD33^+ (early myeloids) (CD34^+ cells [2]; [5]): 69.0 cells per culture × 10^−3
- CD33^+ and CD15^+ (total myeloids) (CD34^+ cells [2]; [5]): 72.0 cells per culture × 10^−3
- CD34^+ (early progenitors) (CD34^+ cells [2]; [5]): 6.3 cells per culture × 10^−3
- CD41^+ (megakaryocytes) (CD34^+ cells [2]; [5]): 2.6^b cells per culture × 10^−3

Substance: GM-CSF
- BrdU incorporation into CD34+ cells (CD34^+ cells [3]): increased
- MK (CD41^+) fold expansion (CD34^+ cells [2]): 14.50 fold
- Myeloid (CD33^+) fold expansion (CD34^+ cells [2]): 1.35 fold

Substance: TPO
- MK (CD41^+) fold expansion (CD34^+ cells [2]): 3.93 ± 3.56 fold
- Myeloid (CD33^+) fold expansion (CD34^+ cells [2]): 3.51 ± 2.23 fold
